# Measured values from PMC5059489, “Mechanistic evaluation and transcriptional signature of a glutathione S-transferase omega 1 inhibitor” (Nature Communications, 2016).
# How the values were obtained:
# Format in all cases: cell-based
# NCIADR Res = experiment: MTT cytotoxicity GI50, NCI-ADR/Res; details: Homo sapiens, NCI/ADR-RES
# Description: Colon cancer cell line HCT116 was generously provided by Dr Bert Vogelstein, Johns Hopkins Medical Institutions, Baltimore, MD. Pancreatic cancer cell line Panc-1 was obtained from Dr Alan Epstein, University of Southern California. All other cell lines were purchased from the American Type Culture Collection (Manassas, VA). MDA-MB-435 cell line was used in the GSTO1 knockdown experiment as it had high GSTO1 expression (Supplementary Fig. 17). We also tested active compounds in NCI-ADR/Res cell line since GSTO1 is implicated in drug resistance. Cell lines were cultured in RPMI 1640 or […] supplemented with 10% fetal bovine serum at 37 °C in a humidified atmosphere of 5% CO2. All cell lines were maintained in culture under 30 passages and tested regularly for Mycoplasma contamination using PlasmoTest (InvivoGen, San Diego, CA, USA).
# (§1) Cell proliferation was assessed by a MTT assay. Cancer cells were seeded in 96-well microtitre plates and, after overnight attachment, treated with GSTO1 inhibitors. After 72 h, MTT solution (3 mg ml^−1; 20 μl) was added to each well and cells were incubated for 3 h at 37 °C. After incubation, media from each well was removed and the dark blue formazan crystals formed by live cells were dissolved in DMSO (150 μl per well). The absorbance intensity was measured at 570 nm on a microplate reader (Molecular Devices, Sunnyvale, CA, USA). Cell viability after 24 h treatment was assessed using ApoTox-Glo triplex assay (Promega) according to the manufacturer's protocol. At least three independent dose–response experiments with each concentration tested in triplicate were performed for each cell line.
# THP-1 cells = experiment: IL-1β secretion from LPS-primed THP-1 cells; details: LPS-primed THP-1, 1.5 h, then ATP 5 mM 30 min, western blot
# Protocol: HCT116 cells were seeded in a six-well plate and treated with GSTO1 inhibitors for 24 h. Cells were washed with ice-cold PBS and lysed with a triple detergent lysis buffer supplemented with protease and phosphatase inhibitor cocktail. Lysate was sonicated and centrifuged at 12,000 r.p.m. for 10 min at 4 °C to remove cell debris. Total protein concentration in the supernatant was measured using BCA protein assay kit (Pierce Biotechnology). For IL-1β experiments, THP-1 cells (1 × 10^6 per well) were seeded in a 12-well plate and differentiated overnight with 10 nM phorbol myristate acetate. […] Band intensities were quantified using Image J software. […]
# Supplementary Fig. 23. […] (a) ATP-induced IL-1β secretion from LPS-stimulated THP-1 cells was analyzed by ELISA. […] Cytokine secretion level is expressed as a percentage of that released from control cells treated with DMSO. Data are mean readings of duplicate wells. […]
# treated with indicated concentrations of C1-27 or GLY (50 µM) for 1.5 h, followed by stimulation with ATP (5 mM) for 30 min. Concentrated supernatant was analyzed by western blotting using anti IL-1β antibody. […] Expression of pro- IL-1β in response to LPS was analyzed by western blotting. […] Representative plots of several gene expression datasets analyzed in Oncomine are shown. […]
# H1299 = experiment: MTT cytotoxicity GI50, H1299; details: Homo sapiens, NCI-H1299
# Protocol: as §1
structure (smiles),measurement,setting,value
CN(C)S(=O)(=O)c1cc(NC(=O)CCl)ccc1Cl [C1-27],GI50,NCIADR Res,3700 nM
same,IL-1β release,THP-1 cells,Dose-dependent inhibition
same,GI50,H1299,1900 nM
